# Assays:
# [1] = Phase solubility diagram of container with excess cinnarizine; assay type: physicochemical; details: 50 mM NaOAc buffer, pD 4.74
# [2] = Phase solubility diagram of container with excess albendazole; assay type: physicochemical; details: 50 mM NaOAc buffer, pD 4.74
# [3] = Phase solubility diagram of container with excess camptothecin; assay type: physicochemical; details: 0.01 M DCl, pD 2.0
# [4] = cited from earlier work
substance,measurement,setting,value
Cucurbit[7]uril [CB[7]],maximum [cinnarizine] obtained with container,[1],13.7 mM
same,"affinity toward albendazole (slope of phase solubility diagram), CB[7] versus 1",[2],comparable
same,"affinity toward camptothecin (slope of phase solubility diagram), CB[7] versus 1",[3],comparable affinity
same,solubility in water,[4],20 to 30 mM

# Reference: paper PMC4412466 (Supramolecular chemistry, 2014)
